Reference: ChEMBL document CHEMBL1144728, “Pyrazolo-pyrimidines: a novel heterocyclic scaffold for potent and selective p38 alpha inhibitors” (Bioorg Med Chem Lett, 2008)

Tests used:
[1] = test system: Mus musculus; experiment: Volume of distribution in mouse at 10 mg/kg, po; assay type: ADME, organism-based; set-up: dose 10 mg/kg, route oral; details: in vivo
[2] = test system: Liver microsomes; experiment: Metabolic stability in rat liver microsomes assessed as metabolic rate per mg of protein; assay type: ADME, Microsome
[3] = Oral bioavailability in mouse at 10 mg/kg; assay type: ADME, organism-based; details: in vivo
[4] = Clearance in mouse at 10 mg/kg, po; assay type: ADME, organism-based; set-up: dose 10 mg/kg, route oral; details: in vivo
[5] = test system: Liver microsomes; experiment: Metabolic stability in human liver microsomes assessed as metabolic rate per mg of protein; assay type: ADME, Microsome
[6] = Terminal half life in mouse at 10 mg/kg, po; assay type: ADME, organism-based; set-up: dose 10 mg/kg, route oral; details: in vivo

Vd [1]: 1.3 L/kg
Stability [2]: 0.005 nmol/min/mg
bioavailability [3]: 60%
CL/F [4]: 5 mL/min/kg
Stability [5]: 0 nmol/min
half-life [6]: 4.1 h
Structure (SMILES): Cc1ccc(C(=O)Nc2ccon2)cc1Nc1ncnc2c1cnn2-c1ccccc1
